By DC50 is commonly meant the concentration at which degradation of the target reaches its halfway point. Usually IC50 stands for the point on the concentration scale where inhibition reaches its midpoint.

DC50 and IC50 data for five molecules are collected here from ChEMBL document CHEMBL5126513 (Eur J Med Chem, 2022).

Test [1] addresses T1, Protein cereblon/Tyrosine-protein kinase BTK (Homo sapiens, UniProt Q06187+Q96SW2). Put plainly: Protac activity at CRBN/BTK in human MINO cells assessed as BTK degradation. It counts as cell-based.
Test [2] addresses T1, Protein cereblon/Tyrosine-protein kinase BTK. Nature of the test: Protac activity at CRBN (unknown origin)/BTK (unknown origin) assessed as BTK degradation. In kind it is protein assay.
For test [3], the target named is T2, Tyrosine-protein kinase BTK (Homo sapiens, UniProt Q06187). Nature of the test: Inhibition of full-length wild-type BTK (unknown origin) measured by HTRF assay. On the technique in general: In TR-FRET formats the signal depends on donor and acceptor labels being close together.
Test [4] addresses T2, Tyrosine-protein kinase BTK. Nature of the test: Inhibition of BTK (unknown origin).
In test [5] the target is T3, Tyrosine-protein kinase TXK (Homo sapiens, UniProt P42681).
T3 sequence (P42681 whole entry): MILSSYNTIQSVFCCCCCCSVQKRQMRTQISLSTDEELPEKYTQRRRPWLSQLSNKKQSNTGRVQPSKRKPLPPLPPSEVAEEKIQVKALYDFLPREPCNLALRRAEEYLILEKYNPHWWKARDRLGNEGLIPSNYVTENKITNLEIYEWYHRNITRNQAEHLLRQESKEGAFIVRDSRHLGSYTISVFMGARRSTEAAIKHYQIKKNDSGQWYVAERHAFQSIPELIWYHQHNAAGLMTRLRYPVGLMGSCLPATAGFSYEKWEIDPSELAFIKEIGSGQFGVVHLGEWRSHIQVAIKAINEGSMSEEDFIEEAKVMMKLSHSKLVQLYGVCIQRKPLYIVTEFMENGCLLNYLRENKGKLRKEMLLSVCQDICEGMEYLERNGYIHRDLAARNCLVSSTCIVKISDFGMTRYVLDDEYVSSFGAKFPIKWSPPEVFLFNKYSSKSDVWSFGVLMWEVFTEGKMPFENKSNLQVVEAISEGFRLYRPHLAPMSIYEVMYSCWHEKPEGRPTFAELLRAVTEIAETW
Put plainly: Inhibition of TXK (unknown origin).

Test [6] has as its target Tyrosine-protein kinase Blk (Homo sapiens, UniProt P51451). Nature of the test: Inhibition of BLK (unknown origin).

T2 sequence (Q06187 whole entry): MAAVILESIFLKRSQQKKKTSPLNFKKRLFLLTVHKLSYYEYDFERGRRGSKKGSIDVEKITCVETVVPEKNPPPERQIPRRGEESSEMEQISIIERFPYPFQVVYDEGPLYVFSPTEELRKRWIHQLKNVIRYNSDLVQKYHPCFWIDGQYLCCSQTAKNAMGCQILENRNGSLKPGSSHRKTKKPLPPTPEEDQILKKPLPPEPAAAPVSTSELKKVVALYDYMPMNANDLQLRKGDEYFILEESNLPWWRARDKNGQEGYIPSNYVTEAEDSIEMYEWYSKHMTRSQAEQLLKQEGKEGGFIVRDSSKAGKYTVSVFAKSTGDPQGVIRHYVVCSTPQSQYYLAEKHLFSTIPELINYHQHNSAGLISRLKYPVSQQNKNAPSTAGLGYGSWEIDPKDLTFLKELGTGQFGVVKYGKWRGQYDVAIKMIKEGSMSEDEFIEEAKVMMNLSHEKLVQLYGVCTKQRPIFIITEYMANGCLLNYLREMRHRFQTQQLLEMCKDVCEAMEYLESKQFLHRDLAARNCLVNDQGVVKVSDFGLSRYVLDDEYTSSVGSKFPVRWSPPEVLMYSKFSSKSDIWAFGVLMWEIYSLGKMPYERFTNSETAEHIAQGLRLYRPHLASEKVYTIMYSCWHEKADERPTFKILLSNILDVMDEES
T1 sequence (Q06187 whole entry): as above
T1 sequence (Q96SW2 whole entry): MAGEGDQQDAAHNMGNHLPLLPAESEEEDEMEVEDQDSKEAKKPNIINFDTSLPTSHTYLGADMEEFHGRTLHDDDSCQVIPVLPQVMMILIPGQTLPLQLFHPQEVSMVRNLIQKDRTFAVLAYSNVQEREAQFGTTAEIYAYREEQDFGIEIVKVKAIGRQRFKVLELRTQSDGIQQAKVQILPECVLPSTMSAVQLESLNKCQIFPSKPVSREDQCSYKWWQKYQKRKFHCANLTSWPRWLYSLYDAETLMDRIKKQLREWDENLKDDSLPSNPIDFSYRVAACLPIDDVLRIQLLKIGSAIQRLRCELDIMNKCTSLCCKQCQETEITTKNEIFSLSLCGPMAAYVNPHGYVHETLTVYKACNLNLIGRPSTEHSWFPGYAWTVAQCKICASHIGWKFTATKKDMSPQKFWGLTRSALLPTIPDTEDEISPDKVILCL
Sequence of Tyrosine-protein kinase Blk (P51451 whole entry): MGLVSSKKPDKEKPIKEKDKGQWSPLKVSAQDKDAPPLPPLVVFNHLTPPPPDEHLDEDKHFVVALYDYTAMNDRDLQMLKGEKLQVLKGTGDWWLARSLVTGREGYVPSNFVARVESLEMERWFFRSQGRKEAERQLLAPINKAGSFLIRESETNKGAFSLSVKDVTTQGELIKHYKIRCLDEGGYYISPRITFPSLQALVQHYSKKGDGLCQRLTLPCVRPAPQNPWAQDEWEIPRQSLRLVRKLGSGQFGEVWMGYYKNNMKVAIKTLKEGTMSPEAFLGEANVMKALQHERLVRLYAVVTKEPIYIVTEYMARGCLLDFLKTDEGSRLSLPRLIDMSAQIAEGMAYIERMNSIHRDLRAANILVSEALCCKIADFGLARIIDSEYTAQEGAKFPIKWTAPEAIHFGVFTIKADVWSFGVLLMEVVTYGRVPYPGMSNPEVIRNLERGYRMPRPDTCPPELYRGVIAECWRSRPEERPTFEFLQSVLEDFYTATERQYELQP

As for `Nc1ncnc2c1c(-c1ccc(Oc3ccccc3)cc1)nn2[C@@H]1CCCN(C(=O)c2cn(CCOCCOCCOCCCc3ccc4c(c3)CN(C3CCC(=O)NC3=O)C4=O)nn2)C1` (stereo partly specified), in test [1], the 50% degradation concentration (DC50) stood at 0.0092 µM.
As for `O=C1CCC(N2C(=O)c3ccc(NCCOCCOCCOCCOCCOCCNC(=O)N[C@H]4CC[C@@H](Nc5ncnc6[nH]cc(C(=O)c7ccc(Oc8ccccc8)cc7Cl)c56)CC4)cc3C2=O)C(=O)N1` (stereo partly specified), the DC50 in test [2] turned out to be 0.0419 µM.
For `Cc1cc(Nc2ncc3c(n2)N(C)CN(c2cc(NC(=O)c4cccc(C(F)(F)F)c4)ccc2C)C3)n(C)n1`, the IC50 in test [3] was 0.0107 µM.
On to `COc1ccc(F)cc1C(=O)NCc1ccc(-c2nn([C@@H](C)C(F)(F)F)c(N)c2C(N)=O)cc1` [PIRTOBRUTINIB], for which the IC50 in test [4] was below 0.001 µM.
On to `CC#CC(=O)N1CC[C@@H](n2c(=O)n(-c3ccc(Oc4ccccc4)cc3)c3c(N)ncnc32)C1` [TIRABRUTINIB], for which the IC50 in test [5] is 0.116 µM; in test [6] it was 1.13 µM.
